The experiment deals with growing MVs (neovessels). Nature of the experiment: Effect of DYRK3 inhibition on MV growth in 3D culture. The experiment is classed as cell-based, human. On the procedure: FIG. 5. Effect of DYRK3 inhibition on MV growth. Phase contrast images of MVs after 9 days of culture, with a single 3-hour exposure of DYRK3 inhibitor after initial neovessel sprouting (day 4). […] Scale=100 μm. Arrows point to neovessels.
For all assays, MVs isolated from human adipose tissue via a limited collagen digestion are embedded (100,000 MV/ml) in a 3 mg/ml collagen gel. This formulation is compatible with a variety of multi-well plates. Whenever possible, assessments are made daily over the course of 1 week, including image acquisition for HCA.
DYRK3 and angiogenesis: To further explore DYRK3 in this model, growing MVs are treated with the small molecule GSK626616, a known DYRK3 inhibitor. Cultures with growing neovessels (in RPMI with B27 and 50 ng/ml VEGF) were treated with 10 μM GSK626616 for 3 hours, and then returned to medium without inhibitor for an additional 6 days.

Where [1] appears, read: 10 μM for 3 hours, then medium without inhibitor for additional 6 days, RPMI with B27 and 50 ng/ml VEGF, qualitative, vs untreated controls.

`O=C1NC(=Nc2c(Cl)cccc2Cl)S/C1=C\c1ccc2nccnc2c1` [GSK626616]: under setting [1], the “impact on parent MV” value is reported as “did not impact parent MV”, the neovessel growth entry is recorded as “stopped neovessel growth” and the neovessel regression entry was “may have even caused neovessel regression”. In addition, the “neovessels apparent in phase contrast images” value (after 9 days of culture, single 3-hour exposure after initial neovessel sprouting (day 4)) is reported as “Fewer neovessels are apparent”.

The record behind these values is patent US20220017870A1, “METHODS OF IDENTIFYING THERAPEUTIC TARGETS FOR TREATING ANGIOGENESIS” (Advanced Solutions Life Sciences, LLC, priority 2020, published 2022).
